Test results from patent US12391913B2, “Lactiplantibacillus plantarum strain for alleviating hyperuricemia and combination and use thereof” (Northeast Agricultural University, priority 2023, dated 2025).

Assays:
Assay type in all cases: in vivo, Wistar rats
[1] = test system: potassium oxonate and xanthine-induced hyperuricemic rats; experiment: serum uric acid levels in hyperuricemic rats; conditions: oral gavage once daily for 14 days, vs model group (group B)
Procedure: (§1) 48 healthy specific pathogen-free (SPF) male Wistar rats (7 weeks, body weight: (200±20) g) were selected. In order to acclimate to a new environment, the 48 male rats were maintained in the animal house with the temperature of 22° C., the humidity of 10% to 60%, and 12 h/12 h light/dark cycle, and fed with standard diet and water ad libitum for 1 week. After the 1 week of acclimating, all experimental rats were randomly assigned to the following 6 groups with 8 rats per group: a control group (group A), a model group (group B), a Lactiplantibacillus plantarum strain BL-17 treated group (group C), a galacto-oligosaccharide-adenylic acid treated group (group D), a combination treated group (group E), and an allopurinol intervention treated group (positive control) (group F). […]
(§2) At the late stage of the experiment, fresh feces of the rats were collected and frozen in a −80° C. refrigerator. […] After being collected, the liver tissue was immediately rinsed with pre-cooled normal saline to remove blood, rapidly frozen in liquid nitrogen and then frozen at −80° C., and subsequently homogenized into liver homogenate, and then relevant indicators were determined. […]

[2] = test system: potassium oxonate and xanthine-induced hyperuricemic rats; experiment: serum creatinine levels in hyperuricemic rats; conditions: oral gavage once daily for 14 days, vs model group
Procedure: as §1, §2

[3] = test system: potassium oxonate and xanthine-induced hyperuricemic rats; experiment: urinary uric acid level in hyperuricemic rats; conditions: oral gavage once daily for 14 days, vs model group (group B)
Procedure: as §1

XOD = experiment: activity of XOD in serum and liver tissues of hyperuricemic rats; conditions: oral gavage once daily for 14 days, vs model group
Procedure: as §1, §2

Oc1ncnc2[nH]ncc12 [allopurinol]
serum uric acid concentration compared with model group [1]: decrease
serum creatinine levels compared with hyperuricemia model group [2]: decrease
urinary uric acid levels compared with model group [3]: decrease to urinary uric acid levels in rats of the control group
activities of XOD in serum and liver compared with model group (XOD): decrease to varying degrees
